From the supplement of paper PMC10307832

Compound: CC1=CC(=C(N1C2=CC=C(C=C2)Cl)C)C(=O)CN3CCCCC3 [IU1-47] + Cc1nc(Nc2ncc(C(=O)Nc3c(C)cccc3Cl)s2)cc(N2CCN(CCO)CC2)n1 [Dasatinib] (partner 0.075 µM)
Assay: relative viability (nuclei count vs DMSO), 5 days (fraction); higher = more cells survive
Details: first compound 0.08 µM
Outline: (§1)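 Relative viability divides the nuclei count in treated wells by that in vehicle wells. Lung cancer cell lines were seeded in 1536-well plates, dosed by pin tool the next day, and fixed and stained after 5 days in one step with final 0.05% Triton X-100, 1% formaldehyde and 1 ug/ml Hoechst. Dosing was a single drug or a fixed anchor-drug dose plus five library-drug doses (not always all listed) in √10 steps, and values are medians of duplicate plates imaged at 4×.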

First: HARA
Second: NCI-H322M
The relative viability of the first is higher: 0.273 for the first, 0.251 for the second.

Going from LCLC-97TM1 to NCI-H2009, the relative viability falls from 0.98 to 0.257.

Compared with A-427, NCI-H441 is lower in relative viability: 0.851 for the first, 0.717 for the second.

Compared with NCI-H661, NCI-H1734 is lower in relative viability: 0.884 for the first, 0.493 for the second.

First: NCI-H460
Second: NCI-H2347
The relative viability of the first is higher: 0.68 for the first, 0.307 for the second.

Compared with SK-LU-1, NCI-H1395 is higher in relative viability: 0.208 for the first, 0.422 for the second.

Compared with 201T, NCI-H1915 is lower in relative viability: 0.542 for the first, 0.318 for the second.

Going from HCC-827 to LXF-289, the relative viability falls from 0.345 to 0.219.

Going from NCI-H23 to NCI-H647, the relative viability falls from 0.925 to 0.171.

First: CAL-12T
Second: NCI-H1651
The relative viability of the first is higher: 0.413 for the first, 0.325 for the second.

Going from EPLC-272H to NCI-H2228, the relative viability rises from 0.371 to 0.625.

Compared with NCI-H1355, NCI-H1437 is lower in relative viability: 0.655 for the first, 0.369 for the second.

First: NCI-H1755
Second: NCI-H2023
The relative viability of the first is lower: 0.455 for the first, 0.564 for the second.

Going from HCC-15 to NCI-H1793, the relative viability falls from 0.687 to 0.458.

First: PC-14
Second: EKVX
The relative viability of the first is lower: 0.223 for the first, 0.564 for the second.

Compared with LC-2-ad, NCI-H1944 is lower in relative viability: 0.466 for the first, 0.213 for the second.

Work on NCI-H1975 yielded a relative viability of 0.329.

Same assay, conditions: first compound 0.253 µM

Compared with HARA, NCI-H322M is higher in relative viability: 0.184 for the first, 0.251 for the second.

First: LCLC-97TM1
Second: NCI-H2009
The relative viability of the first is higher: 0.971 for the first, 0.263 for the second.

First: A-427
Second: NCI-H441
The relative viability of the first is higher: 0.656 for the first, 0.655 for the second.

First: NCI-H661
Second: NCI-H1734
The relative viability of the first is higher: 0.879 for the first, 0.531 for the second.

Going from NCI-H460 to NCI-H2347, the relative viability falls from 0.508 to 0.307.

First: SK-LU-1
Second: NCI-H1395
The relative viability of the first is lower: 0.187 for the first, 0.451 for the second.

Going from 201T to NCI-H1915, the relative viability falls from 0.604 to 0.3.

Compared with HCC-827, LXF-289 is lower in relative viability: 0.366 for the first, 0.24 for the second.

Going from NCI-H23 to NCI-H647, the relative viability falls from 0.625 to 0.179.

First: CAL-12T
Second: NCI-H1651
The relative viability of the first is lower: 0.388 for the first, 0.412 for the second.

Compared with EPLC-272H, NCI-H2228 is higher in relative viability: 0.459 for the first, 0.581 for the second.

Going from NCI-H1355 to NCI-H3122, the relative viability rises from 0.798 to 0.816.

Going from NCI-H1437 to NCI-H1755, the relative viability rises from 0.348 to 0.528.

Going from NCI-H2023 to HCC-15, the relative viability rises from 0.521 to 0.749.

Going from NCI-H1793 to PC-14, the relative viability falls from 0.298 to 0.257.

Going from EKVX to LC-2-ad, the relative viability falls from 0.577 to 0.524.

First: NCI-H1944
Second: NCI-H1975
The relative viability of the first is lower: 0.214 for the first, 0.343 for the second.

Same assay, conditions: first compound 0.8 µM

Compared with HARA, NCI-H322M is lower in relative viability: 0.325 for the first, 0.257 for the second.

Going from LCLC-97TM1 to NCI-H2009, the relative viability falls from 1.03 to 0.293.

Compared with A-427, NCI-H441 is lower in relative viability: 0.728 for the first, 0.679 for the second.

Compared with NCI-H661, NCI-H1734 is lower in relative viability: 0.83 for the first, 0.461 for the second.

Compared with NCI-H460, NCI-H2347 is lower in relative viability: 0.654 for the first, 0.318 for the second.

Compared with SK-LU-1, NCI-H1395 is higher in relative viability: 0.182 for the first, 0.457 for the second.

Compared with 201T, NCI-H1915 is lower in relative viability: 0.622 for the first, 0.334 for the second.

Going from HCC-827 to LXF-289, the relative viability falls from 0.301 to 0.179.

First: NCI-H23
Second: CAL-12T
The relative viability of the first is higher: 0.9 for the first, 0.436 for the second.

Going from NCI-H1651 to EPLC-272H, the relative viability falls from 0.454 to 0.322.

Compared with NCI-H2228, NCI-H1355 is higher in relative viability: 0.471 for the first, 0.706 for the second.

Going from NCI-H3122 to NCI-H1437, the relative viability falls from 0.854 to 0.384.

Compared with NCI-H1755, NCI-H2023 is higher in relative viability: 0.426 for the first, 0.657 for the second.

First: HCC-15
Second: NCI-H1793
The relative viability of the first is higher: 0.685 for the first, 0.403 for the second.

Going from PC-14 to EKVX, the relative viability rises from 0.209 to 0.691.

Compared with LC-2-ad, NCI-H1944 is lower in relative viability: 0.523 for the first, 0.204 for the second.

With NCI-H1975 the relative viability was 0.372.

Same assay, conditions: first compound 2.53 µM

First: NCI-H322M
Second: LCLC-97TM1
The relative viability of the first is lower: 0.265 for the first, 0.841 for the second.

First: NCI-H2009
Second: NCI-H441
The relative viability of the first is lower: 0.231 for the first, 0.471 for the second.

First: NCI-H661
Second: NCI-H460
The relative viability of the first is higher: 0.77 for the first, 0.538 for the second.

Compared with NCI-H2347, SK-LU-1 is lower in relative viability: 0.285 for the first, 0.18 for the second.

Compared with NCI-H1395, HCC-827 is lower in relative viability: 0.374 for the first, 0.288 for the second.

Compared with LXF-289, NCI-H23 is higher in relative viability: 0.223 for the first, 0.671 for the second.

Going from NCI-H647 to CAL-12T, the relative viability rises from 0.155 to 0.263.

First: NCI-H1651
Second: NCI-H2228
The relative viability of the first is higher: 0.414 for the first, 0.363 for the second.

Going from NCI-H3122 to NCI-H1437, the relative viability falls from 0.892 to 0.35.

Going from NCI-H1755 to NCI-H2023, the relative viability falls from 0.409 to 0.347.

Going from HCC-15 to PC-14, the relative viability falls from 0.564 to 0.226.

Going from EKVX to LC-2-ad, the relative viability rises from 0.34 to 0.491.

First: NCI-H1944
Second: NCI-H1975
The relative viability of the first is lower: 0.2 for the first, 0.318 for the second.

Same assay, conditions: first compound 8 µM

Going from HARA to NCI-H322M, the relative viability falls from 0.276 to 0.238.

Going from LCLC-97TM1 to NCI-H2009, the relative viability falls from 0.776 to 0.241.

Compared with A-427, NCI-H441 is lower in relative viability: 0.642 for the first, 0.576 for the second.

Compared with NCI-H661, NCI-H1734 is lower in relative viability: 0.695 for the first, 0.406 for the second.

First: NCI-H460
Second: NCI-H2347
The relative viability of the first is higher: 0.501 for the first, 0.342 for the second.

Going from SK-LU-1 to NCI-H1395, the relative viability rises from 0.159 to 0.374.

Going from 201T to NCI-H1915, the relative viability falls from 0.587 to 0.306.

Going from HCC-827 to LXF-289, the relative viability falls from 0.387 to 0.209.

Going from NCI-H23 to NCI-H647, the relative viability falls from 0.743 to 0.177.

First: CAL-12T
Second: NCI-H1651
The relative viability of the first is lower: 0.344 for the first, 0.39 for the second.

First: EPLC-272H
Second: NCI-H2228
The relative viability of the first is lower: 0.35 for the first, 0.43 for the second.

Going from NCI-H1355 to NCI-H3122, the relative viability rises from 0.667 to 1.01.

Going from NCI-H1437 to NCI-H1755, the relative viability falls from 0.365 to 0.36.

Going from NCI-H2023 to HCC-15, the relative viability falls from 0.55 to 0.519.

Compared with NCI-H1793, PC-14 is lower in relative viability: 0.409 for the first, 0.205 for the second.

Going from EKVX to LC-2-ad, the relative viability rises from 0.389 to 0.42.

Going from NCI-H1944 to NCI-H1975, the relative viability rises from 0.203 to 0.361.

Compound: Cc1nc(C(=O)NCC(=O)O)c(O)c2ccc(Oc3ccccc3)cc12 [FG-4592] + Cc1cc(Nc2cc(N3CCN(C)CC3)nc(Sc3ccc(NC(=O)C4CC4)cc3)n2)n[nH]1 [Tozasertib] (partner 0.1 µM)
Assay: as above
Details: first compound 0.08 µM
Outline: as §1

Going from HARA to NCI-H322M, the relative viability rises from 0.12 to 0.469.

With LCLC-97TM1 the relative viability was 0.173.
